Measured values taken from patent US5214047A, “Tetracyclic quinazoline derivatives, effective as antiarrythmic agents” (priority 1987, dated 1993).
Counter-ions that a name gives are not always drawn.

System: QT interval
Assay: QT interval prolongation (ECG, class III action) in anesthetized guinea pigs
Assay type: in vivo, Pirbright white guinea pigs
Conditions: guinea pigs, intravenous; for ED (20%): Cavia porcellus, urethane anesthesia, dose for 20% QT prolongation calculated from log dose (mg/kg) vs relative QT prolongation, read-out: Prolongation of the QT interval ED20%; for Potency relative to that of d-sotalol = 1.0: QT prolongation, ED20%
Description: The action of the novel substances has been tested as follows:
The experimental animals used were male and female Pirbright white guinea pigs weighing 300-500 g. 1.5 g/kg urethane i.p. were used for anesthesia. The substances were administered intravenously. The extremity lead II was recorded to measure the ECG conduction times and the heart rate. The measured variables were the QT and PQ intervals and the heart rate. 4-6 animals were used for each dose. The criterion for a class III action was an increase in the QT interval compared with the values before administration of the substance. A PQ increase and a large decrease in the heart rate were used as exclusion criteria. The ED20% is calculated from the linear relation between log dose (mg/kg) of the substance and the relative prolongation of the QT interval (Δ%).

Compound | ED (20%) | Potency relative to that of d-sotalol = 1.0
c1csc(C23CCCN2c2ccccc2C2=NCCCN23)c1 (centres unmarked) [Example 25] | 0.58 mg/kg | 6.2
Clc1ccc(C23CCCN2c2ccccc2C2=NCCN23)cc1Cl (centres unmarked) [Example 9] | 1.5 mg/kg | 2.4
CC1(C)CCN=C2c3ccccc3N3CCCC3(c3ccc([N+](=O)[O-])cc3)N21 (centres unmarked) [Example 47, 2,3,5,6,7,8-Hexahydro-4,4-dimethyl-6-(4-nitrophenyl)-2H-pyrimido[1,2-c]pyrrolo[1,2-a]quinazoline hydrochloride] | 0.52 mg/kg | 7.0
Clc1ccc(C23CCCN2c2ccccc2C2=NCCCN23)s1 (centres unmarked) [Example 33, 6-(2-(5-Chlorothienyl))-2,3,5,6,7,8-hexahydro-2H-pyrimido[1,2-c]pyrrolo[1,2-a]quinazoline] | 1.5 mg/kg | 2.4
c1ccc(C23CCCN2c2ccccc2C2=NCCN23)cc1 (centres unmarked) [Example 50, hydrochloride] | 0.25 mg/kg | 15
Fc1ccc(C23CCCN2c2ccccc2C2=NCCCN23)cc1 (centres unmarked) [Example 27, 6-(4-Fluorophenyl)-2,3,5,6,7,8-hexahydro-2H-pyrimido[1,2-c]pyrrolo[1,2-a]quinazoline] | 0.42 mg/kg | 8.7
COc1ccc(C23CCCN2c2ccccc2C2=NCCN23)cc1 (centres unmarked) [Example 8] | 0.61 mg/kg | 6.0
Fc1ccc(C23CCCN2c2ccccc2C2=NCCN23)cc1 (centres unmarked) [Example 4, 5-(4-Fluorophenyl)-2,3,5,6,7,8-hexahydroimidazo[1,2-c]pyrrolo[1,2-a]quinazoline] | 0.21 mg/kg | 17
O=[N+]([O-])c1cccc(C23CCCN2c2ccccc2C2=NCCCN23)c1 (centres unmarked) [Example 31, 2,3,5,6,7,8-Hexahydro-6-(3-nitrophenyl)-2H-pyrimido[1,2-c]pyrrolo[1,2-a]quinazoline] | 0.56 mg/kg | 6.5
COc1cc2c(cc1OC)N1CCCC1(c1ccccc1)N1CCN=C21 (centres unmarked) [Example 5, 2,3,5,6,7,8-Hexahydro-11,12-dimethoxy-5-phenylimidazo[1,2-c]pyrrolo[1,2-a]quinazoline] | 1 mg/kg | 3.5
